Data reported in patent US20210121419A1, “METFORMIN COMPOUNDED COMPOSITION AND METHOD THEREOF” (ZHOUSHAN TRITECH BIOSCIENCES, INC., priority 2018, published 2021).

Tested on: enteric microorganism
Assay: Low dose metformin usage in a large population
Format: in vivo, human
Settings: low dose 0.125-0.25 g/day
Text: One of the new discoveries of the present disclosure is the important health effect of low dose metformin. The normal dosage of metformin in Chinese population is 1-2 g per day, and the dose for the anti-aging clinical trial in the US is 1.7 g per day. It is known that one of the functions of metformin in regulating human health is through regulating enteric microorganism, whereas an unexpected discovery of the present disclosure is that low dose metformin (0.1-0.5 g/day, prefer for 0.125-0.25 g/day) can also promote health through regulating enteric microorganism. The application of low dose metformin can avoid long-term application caused side effects such as hypoglycemia, lactic acidosis, and hepatic and renal toxicity when normal dosage is used.

- time until stool returned to normal: 4 to 5 days
- stool effect (2-3 days after usage): mild diarrhea
Structure (SMILES): CN(C)C(=N)N=C(N)N [metformin, 1,1-Dimethylbiguanide]
